Results: patent US10168342B2, “Lipid probes and uses thereof” (THE SCRIPPS RESEARCH INSTITUTE, priority 2015, dated 2019)
pIC50: −log10 of the molar value. Read-outs that look alike come from different tables or passages of the source.

Key:
[1] = molecular target: T1, human NUCB1 (Homo sapiens, UniProt Q02818); experiment: In vitro gel-based competition of AEA-DA probe labeling of NUCB1; format: binding; settings: for pIC50: AEA-DA 5 μM, recombinant NUCB1 0.25 μM doped into HEK293T lysates, percent of maximal competition, read-out: IC50, blockade of AEA-DA probe labeling of NUCB1
T1 construct: made in house; host or cells: Escherichia coli BL21(DE3)
T1 sequence (Q02818 27-461): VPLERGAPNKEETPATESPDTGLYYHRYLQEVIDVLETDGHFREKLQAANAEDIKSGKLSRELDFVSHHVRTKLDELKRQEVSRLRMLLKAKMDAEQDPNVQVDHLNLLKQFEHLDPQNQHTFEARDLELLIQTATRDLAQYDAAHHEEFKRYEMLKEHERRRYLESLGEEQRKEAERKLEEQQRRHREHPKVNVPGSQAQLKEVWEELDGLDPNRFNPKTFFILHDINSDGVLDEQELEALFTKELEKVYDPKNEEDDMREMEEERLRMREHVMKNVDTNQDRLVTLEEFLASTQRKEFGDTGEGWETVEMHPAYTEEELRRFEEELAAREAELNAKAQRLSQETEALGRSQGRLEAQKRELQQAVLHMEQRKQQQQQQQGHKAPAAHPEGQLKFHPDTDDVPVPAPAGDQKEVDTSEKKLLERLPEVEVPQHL
Protocol: Human NUCB1 lacking the N-terminal signal sequence (M1-A26) was subcloned into pET45b(+) vector (Novagen) using the following PCR primers for amplification: 5′-CATCAATTGTGTGCCCCTGGAGAGAG-3′ and 5′-AGCAAGCTTTACAGATGTTGGGGCACC-3′. Following transformation of Escherichia coli strain BL21(DE3) with hNucb1ΔSSpET45b(+), a single colony was isolated and grown in Terrific Broth containing carbenicillin (100 mg/L) at 37° C. to an OD600 of 0.8. Protein expression was induced with IPTG (1.0 mM) and the cells were incubated at 20° C. with shaking overnight. After centrifugation, cells pellets were resuspended in cold buffer containing HEPES (0.05M), NaCl (0.03 M), imidazole (5.0 mM), DNase (0.1 mg/mL), MgCl2 (1.0 mM), CaCl2 (1.0 mM) and EDTA-free Complete Protease Inhibitor Cocktail and lysed using a microfluidizer. […] The suspension was applied to a column and the retained resin was washed with HEPES buffer containing 500 mM NaCl until the eluent was clean of DNA and protein (A280/260) and then with HEPES buffer containing 10 mM imidazole (5 mL/1 mL resin). Protein was then slowly eluted with HEPES buffer containing 50 mM imidazole in 1.0 mL fractions and the combined fractions containing hNUCB1 were passed through a Sephadex G-25M column to remove imidazole and concentrated in an Amicon centrifugal filter device (Millipore). These conditions produced hNUCB1 at approximately 10 mg/L of culture; however, several lower molecular weight fragments were also present in this preparation. hNUCB1 was further purified by size exclusion chromatography.
Cell lysates (1.0 mg/mL), the indicated lipid probe (2.5 or 5 μM) and, for recombinant NUCB1 competition experiments, purified hNUCB1 (250 nM) and CaCl2 (100 μM) were mixed on ice. DMSO or competitors were then added to the proteome mixture (50 μM) in 96-well plates and each sample was incubated for 15 min at 37° C. The samples were then irradiated with UV light and subjected to previously described click chemistry conditions. As before, each reaction was quenched with 4×SDS loading buffer (17 μL), and proteins were resolved using SDS-PAGE (10% acrylamide gel) and analyzed by in-gel fluorescent scanning on a Hitachi FMBIO-II flatbed fluorescence scanner. NUCB1 competition was quantitatively assessed by measuring the fluorescent intensity of the corresponding gel band using ImageJ 1.48v and normalizing this value by a non-competed gel band to control for loading differences.
Metabolite data are shown as mean±SEM (n=3-5/group). Differences between two groups were determined using Student's t test (unpaired, two-tailed) and significance was denoted for P values<0.05.

[2] = molecular target: T2, AEA-DA lipid probe targets in Neuro2a cells (Mus musculus, UniProt Q6PD26)
T2 sequence (Q6PD26 1-555): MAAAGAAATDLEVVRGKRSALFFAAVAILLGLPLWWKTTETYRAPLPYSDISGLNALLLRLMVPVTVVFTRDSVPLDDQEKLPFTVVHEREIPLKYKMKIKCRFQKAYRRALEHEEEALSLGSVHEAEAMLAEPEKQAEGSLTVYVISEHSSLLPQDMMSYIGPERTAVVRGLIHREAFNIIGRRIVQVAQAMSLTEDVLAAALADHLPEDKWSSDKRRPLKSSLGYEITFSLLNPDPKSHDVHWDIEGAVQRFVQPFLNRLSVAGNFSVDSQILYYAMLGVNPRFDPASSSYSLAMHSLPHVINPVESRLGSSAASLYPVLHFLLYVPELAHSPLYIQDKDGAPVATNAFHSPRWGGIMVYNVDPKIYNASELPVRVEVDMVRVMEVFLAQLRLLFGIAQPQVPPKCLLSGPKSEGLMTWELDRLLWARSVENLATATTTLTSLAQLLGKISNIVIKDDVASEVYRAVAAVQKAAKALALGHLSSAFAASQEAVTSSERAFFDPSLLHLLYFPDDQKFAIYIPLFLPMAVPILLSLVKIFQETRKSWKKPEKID

[3] = test system: PGE2 and TXB2 production in PMA-stimulated A549 cells; experiment: Prostaglandin production in A549 cells; format: cell-based, human; settings: 10 μM, 30 min pre-treatment, then PMA
Protocol: The old media was removed from each plate and cells were washed with DPBS (2×3 mL) before adding freshly prepared media solutions containing vehicle or compound (3 mL/plate). After incubating for 30 min at 37° C., cells were then stimulated with PMA (10 nM) for 8 h. The media from the cells was then transferred to glass vials containing MS internal standards [PGE2-d9 (10 pmol), PGD2-d9 (10 pmol) and TXB2-d4 (10 pmol)], centrifuged (1,500×g, 5 min) to remove detached cells and then loaded onto preequilibrated reversed phase SPE cartridges (Phenomenex, Strata-X 33 μm, 60 mg/3 mL). After washing cartridges with 5% MeOH/H2O (3 mL), analytes were eluted with MeOH (1.0 mL) and the eluent was concentrated under a stream of N2. Concentrated samples were stored at −80° C. until the day of analysis when they were reconstituted in Mobile Phase A [100 μL, 30% CH3CN in H2O (0.1% AcOH)]. Media extracts were analyzed by LC/MS/MS with LC separation performed on a Kinetex reversed phase C18 column (50×4.6 mm, 2.6 μM particle size, 100Å). Mobile phase gradients were identical to those described above for prostamide analysis and the composition Mobile phases A and B differed only by lacking NH4OAc (5 mM). The following MS parameters were used to measure the indicated metabolites by MRM (precursor ion, product ion, collision energy, polarity): PGE2 (351, 271, 12, negative), PGE2-d9 (360, 280, 12, negative), TXB2 (369, 169, 6, negative), TXB2-d4 (373, 173, 6, negative). PGE2 and TXB2 levels were quantified by determining peak areas in relation to their deuterated internal standard.

| Structure (SMILES) | competition of AEA-DA probe labeling of recombinant NUCB1 by lipids ([1]; AEA-DA 5.0 μM, lipids 20×, NUCB1-transfected HEK293T lysates) | SILAC ratio Pigs ([2]; competitor 200 μM) | PGE2 synthesis from endogenous AA [3] | TXB2 synthesis from endogenous AA [3] | SILAC ratio Pigs ([2]; competitor 25 μM) | pIC50 [1] | SILAC ratio Pigs ([2]; competitor 10 μM) | SILAC ratio Pigs ([2]; competitor 50 μM) | SILAC ratio Pigs ([2]; competitor 100 μM) |
| --- | --- | --- | --- | --- | --- | --- | --- | --- | --- |
| CCCCC/C=C\C/C=C\C/C=C\C/C=C\CCCC(=O)NCCO [AEA, anandamide, reference compound] | blocked | 1.6 |  |  |  |  |  |  |  |
| O=C(/C=C/c1cccnc1)NCCCCC1CCN(C(=O)c2ccccc2)CC1 [FK-866, reference compound] |  |  | no effect | complete suppression | 1.3 |  |  |  |  |
| CN1CCN(C(=O)c2c(-c3ccccc3)c3cc([N+](=O)[O-])ccc3n2C)CC1 [KML110, (1-Methyl-5-nitro-3-phenyl-1H-indol-2-yl)(4-methylpiperazin-1-yl)methanone] |  |  | suppress | suppress | 1.2 | 5.02 |  |  |  |
| CN1CCN(C(=O)c2[nH]c3ccc([N+](=O)[O-])cc3c2-c2ccccc2)CC1 [MJN228, (4-Methylpiperazin-1-yl)(5-nitro-3-phenyl-1H-indol-2-yl)methanone] |  |  | suppress | suppress | 1.6 | 5.48 | 1.3 | 1.7 | 2.0 |
| C=CCN(C)CCCCCCOc1ccc(C(=O)c2ccc(Br)cc2)c(F)c1 [Ro 48-8071, reference compound] |  |  |  |  | 1.1 |  |  |  |  |
